Results as given in patent US11077090B2, “Compounds and compositions and uses thereof” (Sunovion Pharmaceuticals Inc., priority 2016, dated 2021).

Experiments:
[1] = system: extracellular concentrations of neurotransmitters (DA, 5-HT, NE, ACh) in the nucleus accumbens (NAcc); assay: In vivo microdialysis of the nucleus accumbens; design: key: −: No change in extracellular concentration (P < 0.05 vs vehicle); +: Significant increase in extracellular concentration (P < 0.05 vs vehicle); conditions: mice
Excerpt: (§1) In vivo microdialysis is a biological sampling technique used to evaluate the extracellular concentrations of neurotransmitters in specific brain regions following administration of a test compound to animals. Dysfunctions of brain neurotransmitter systems, such as dopamine (DA), norepinephrine (NE), serotonin (5-HT) and/or acetylcholine (ACh), have been linked to cognitive deficits (e.g., memory impairment, inattention, etc.), which may be observed in human aging, Alzheimer's disease (AD) and Attention Deficit Hyperactivity Disorder (ADHD). Drugs that increase extracellular concentrations of DA, NE, 5-HT and/or ACh in the prefrontal cortex (PFC), such as donepezil and methylphenidate, can reverse cognitive deficits in humans and animals.
(§2) Adult male C57Bl/6 mice (n=6 per group) from Jackson Laboratories were anesthetized using isoflurane (2%, 800 mL/min O2). Bupivacaine/epinephrine was used for local anesthesia and carprofen was used for peri-/post-operative analgesia. The animals were placed in a stereotaxic frame (Kopf instruments, USA) and I-shaped microdialysis probes (polyacrylonitril membrane, BrainLink, the Netherlands) were inserted into the PFC (2 mm exposed membrane; coordinates for the tips of the probes: posterior (AP)=+2.0 mm to bregma, lateral (L)=−0.5 mm to midline and ventral (V)=−3.3 mm to dura, the toothbar set at 0.0 mm) and the NAcc (coordinates for the tips of the probes: posterior (AP)=+0.8 mm to bregma, lateral (L)=+0.9 mm to midline and ventral (V)=−4.2 mm to dura, the toothbar set at 0.0 mm (Paxinos and Franklin, 2001)). After surgery, animals were housed individually in cages and provided food and water ad libitum. In vivo microdialysis experiments were performed one day after surgery. On the day of the experiment, the microdialysis probes were connected with flexible PEEK tubing to a microperfusion pump (Harvard PHD 2000 Syringe pump, Holliston, Mass. or similar). Microdialysis probes were perfused with artificial cerebrospinal fluid (aCSF) containing 147 mM NaCl, 3.0 mM KCl, 1.2 mM CaCl2 and 1.2 mM MgCl2, at a flow rate of […]. Microdialysis samples were collected for 30 minute periods by an automated fraction collector (820 Microsampler, Univentor, Malta or similar) into polystyrene mini-vials already containing 15 μL of 0.02 M formic acid (FA) and 0.04% ascorbic acid in ultrapurified H2O. Four basal samples were collected before the administration of vehicle or test compound (i.p., 5 mL/kg injection volumes). Samples were collected for an additional 240 min following vehicle or compound administration. All the dialysis samples were stored at −80° C. awaiting analysis. After the experiment, the mice were sacrificed and brain tissue was collected for probe verification. Each dialysis sample was analyzed for concentrations of DA, NE, 5-HT and ACh as determined by HPLC with tandem mass spectrometry (MS/MS) detection using labeled isotopes of the analytes of interest as internal standards. Data was expressed as a percentage of basal output, calculated by dividing each post-dose time point with the average basal output=100%. An increase in the post-dose percent basal output of DA, NE, 5-HT and/or ACh in the PFC relative to the vehicle condition indicates a potential cognition-enhancing drug-like response. Graphical representations of the observed changes in neurotransmitter concentrations are shown in the indicated Figures.

[2] = system: extracellular concentrations of neurotransmitters (DA, 5-HT, NE, ACh) in the prefrontal cortex (PFC); assay: In vivo microdialysis of the prefrontal cortex; design: key: −: No change in extracellular concentration (P < 0.05 vs vehicle); +: Significant increase in extracellular concentration (P < 0.05 vs vehicle); conditions: mice
Excerpt: as §1, §2

Male C57Bl/6J mice = assay: Marble burying test; format: in vivo; design: key: −: No reduction in number of marbles buried; +: Significant reduction in number of marbles buried (P < 0.05 vs vehicle)
Procedure: The marble burying assay is used to evaluate the anxiolytic activity of a test compound. After placement in a novel cage containing glass marbles, mice will bury the marbles. Acute administration of anxiolytic agents, as well as antidepressants, decrease this activity at non-sedating doses. Male C57Bl/6J mice from Jackson Laboratories were used in this study and were acclimatized to the experimental room for at least 1 hour prior to testing. Mice (n=10 per group) were administered sterile water or test compound intraperitoneally (i.p.) or orally by gavage (p.o.), or the positive control chlordiazepoxide (15 mg/kg, i.p.), in 10 mL/kg injection volumes, and returned to their home cages for a 30-minute pretreatment period. The mice were then placed individually in clean cages, containing hard wood bedding and twenty black marbles placed in spaced rows of 4×5. After a 30-minute test session, the number of buried marbles was counted. A marble was considered buried if it was pushed at least two thirds into the bedding. Locomotor activity was monitored by measuring the distance traveled using an overhead camera and Video Tracker Software (ViewPoint Life Sciences Software, France). A reduction in the number of marbles buried relative to the vehicle condition indicates an anxiolytic drug-like effect.

male Sprague-Dawley rats = assay: Stress induced hyperthermia (SIH) assay; format: in vivo; design: key: −: No change in Delta T ([…]T); +: Significant decrease in Delta T ([…]T) (P < 0.05 vs vehicle)
Excerpt: Stress-induced hyperthermia (SIH), mediated by the autonomic nervous system, is well known to occur prior to and during exposure to stress and/or anxiety-inducing situations. In many human anxiety disorders, it occurs as an integral part of the pathology and is often considered a representative symptom of the disease, e.g. in generalized anxiety disorder as defined in DSM-IV. In rodents, acute administration of anxiolytic drugs, such as buspirone or chlordiazepoxide (CDP), are known to reduce the SIH response to stressors such as handling, noise, heat, novelty, or pain. The test involves two measures of rectal temperature repeated in the same animal with a 10-minute interval. On the day prior to testing, male Sprague-Dawley rats from Envigo (n=10 per group) were brought to the experimental room approximately one hour before scheduled lights out and singly housed overnight with food and water ad libitum. On the morning of the experiment, animals were first injected with either vehicle or test compound orally by gavage, or CDP (10 mg/kg, i.p.). One hour following injection, each animal was removed from the holding cage and held in a supine position while the rectal temperature was measured by slowly inserting a rectal probe into the animal's rectum at a length of approximately 0.5 cm. The rectal probe was attached to a PhysiTemp digital thermometer (Fisher Scientific) which provides temperature readings at 0.1° C. accuracy. The probe remained inside the animal for approximately 5 seconds or until body temperature reaches stability. This temperature was recorded as the baseline rectal temperature (T1). The animal was immediately placed back to the holding cage and after a 10-min interval the second rectal temperature (T2) was taken using the same procedure as in measuring T1. Before each insertion, the rectal probe was cleaned with an alcohol pad and lubricated with sterile K-Y jelly. All SIH studies were conducted between 8:00-11:00 a.m. The SIH response was calculated as the difference in temperature between the second and first temperature reading (Delta T, […]T). A reduction in […]T relative to the vehicle condition indicates an anxiolytic drug-like response.

compound-treated mice = assay: Neuropharmacological assay (SmartCube): behavioral activity signature and minimal effective dose; format: in vivo; conditions: for AD: ADHD (probability of activity signature) / AG: analgesic (probability of activity signature) / AX: anxiolytic (probability of activity signature) / CE: cognitive enhancer (probability of activity signature) / DP: anti-depressant (probability of activity signature) / MS: mood stabilizer (probability of activity signature) / PS: anti-psychotic (probability of activity signature) / SD: sedative hypnotic (probability of activity signature) / UN: uncharacterized CNS activity (probability of activity signature): i.p. 15 min before test, most efficacious dose(s)
Summary of the method: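 Video-recorded behavior is compared algorithmically against a reference-compound database, yielding class probabilities (best dose reported). Compounds given i.p. in NMP/PEG/propylene glycol 15 min pre-test at 3 doses; potency as MED, the dose (mpk, range usually 0.3–30) reaching ≥50% total activity.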

[3] = MED = dose having 50% or more total activity

Compound	Marbles Buried (Male C57Bl/6J mice; 1 mg/kg (i.p.))	NAcc [5-HT] (FIG. 6) ([1]; 30 mg/kg IP)	NAcc [ACh] (FIG. 8) ([1]; 30 mg/kg IP)	NAcc [DA] (FIG. 5) ([1]; 30 mg/kg IP)	NAcc [NE] (FIG. 7) ([1]; 30 mg/kg IP)	PFC [5-HT] (FIG. 2) ([2]; 30 mg/kg IP)	Delta T ([…]T) (male Sprague-Dawley rats; 3 mg/kg PO)	AD: ADHD (probability of activity signature) (compound-treated mice)	AG: analgesic (probability of activity signature) (compound-treated mice)	AX: anxiolytic (probability of activity signature) (compound-treated mice)	CE: cognitive enhancer (probability of activity signature) (compound-treated mice)	DP: anti-depressant (probability of activity signature) (compound-treated mice)	MS: mood stabilizer (probability of activity signature) (compound-treated mice)	PS: anti-psychotic (probability of activity signature) (compound-treated mice)	SD: sedative hypnotic (probability of activity signature) (compound-treated mice)	UN: uncharacterized CNS activity (probability of activity signature) (compound-treated mice)	Marbles Buried (Male C57Bl/6J mice; 3 mg/kg (i.p.))	Marbles Buried (Male C57Bl/6J mice; 10 mg/kg (i.p.))	Delta T ([…]T) (male Sprague-Dawley rats; 10 mg/kg PO)	Delta T ([…]T) (male Sprague-Dawley rats; 30 mg/kg PO)	further results
C[C@@H]1OCc2ccccc2[C@H]1N (single isomer, unassigned) [Compound 152]	−																				NAcc [5-HT] (FIG. 6) ([1]; 10 mg/kg IP): +; NAcc [ACh] (FIG. 8) ([1]; 10 mg/kg IP): −; NAcc [DA] (FIG. 5) ([1]; 10 mg/kg IP): −; NAcc [NE] (FIG. 7) ([1]; 10 mg/kg IP): +; PFC [5-HT] (FIG. 2) ([2]; 10 mg/kg IP): +; PFC [ACh] (FIG. 4) ([2]; 10 mg/kg IP): +; PFC [DA] (FIG. 1) ([2]; 10 mg/kg IP): +; PFC [NE] (FIG. 3) ([2]; 10 mg/kg IP): +; Delta T ([…]T) (male Sprague-Dawley rats; 0.3 mg/kg PO): −
Cc1cccc2c1[C@@H](N)[C@@H](C)OC2 (single isomer, unassigned) [Compound 170]	−	−	−	−	+	−	−														PFC [ACh] (FIG. 4) ([2]; 30 mg/kg IP): −; PFC [DA] (FIG. 1) ([2]; 30 mg/kg IP): +; PFC [NE] (FIG. 3) ([2]; 30 mg/kg IP): +
C[C@@H]1OCc2ccccc2[C@H]1N (single isomer, unassigned) [Example 152]							+	+ (LOQ ≤ + <5%)	++ (5% ≤ ++ <25%)	+++ (25% ≤ +++ <50%)	++ (5% ≤ ++ <25%)	++ (5% ≤ ++ <25%)	+ (LOQ ≤ + <5%)	++ (5% ≤ ++ <25%)	+ (LOQ ≤ + <5%)	+++ (25% ≤ +++ <50%)	−	+	+	+	Potency: minimal effective dose (MED) (compound-treated mice; [3]): A (≤3 mpk); Delta T ([…]T) (male Sprague-Dawley rats; 1 mg/kg PO): +
Cc1cccc2c1[C@@H](N)[C@@H](C)OC2 (single isomer, unassigned) [Example 170]								+ (LOQ ≤ + <5%)	++ (5% ≤ ++ <25%)	++ (5% ≤ ++ <25%)	++ (5% ≤ ++ <25%)	++ (5% ≤ ++ <25%)	+ (LOQ ≤ + <5%)	++ (5% ≤ ++ <25%)	+ (LOQ ≤ + <5%)	++++ (50% ≤ ++++)	−	+	+	+	Potency: minimal effective dose (MED), binned (compound-treated mice; [3]): A (≤3 mpk)
Cc1ccc2c(c1)[C@H](N)[C@H](C)OC2 [Compound 157]	−	−	−	−	+	+															PFC [ACh] (FIG. 4) ([2]; 30 mg/kg IP): −; PFC [DA] (FIG. 1) ([2]; 30 mg/kg IP): +; PFC [NE] (FIG. 3) ([2]; 30 mg/kg IP): +; Delta T ([…]T) (male Sprague-Dawley rats; 1 mg/kg PO): −
Cc1ccc2c(c1)[C@H](N)[C@H](C)OC2 [Example 157]							+	+ (LOQ ≤ + <5%)	++ (5% ≤ ++ <25%)	++ (5% ≤ ++ <25%)	++ (5% ≤ ++ <25%)	++ (5% ≤ ++ <25%)	++ (5% ≤ ++ <25%)	+++ (25% ≤ +++ <50%)	+ (LOQ ≤ + <5%)	++++ (50% ≤ ++++)	−	+	+	+	Potency: minimal effective dose (MED), binned (compound-treated mice; [3]): A (≤3 mpk)
